Experimental data from patent US8822448B2, “Pyrazoloquinoline compound” (Astellas Pharma Inc., priority 2010, dated 2014).
pIC50: −log10 of the molar value. Counter-ions that a name gives are not always drawn.

Tests used:
PDE9 = PDE9 (Homo sapiens (Human), UniProt O76083); experiment: PDE9-inhibiting activity (SPA enzyme assay); assay type: biochemical; settings: IC50 values; cGMP 1 μM substrate, 30° C.; read-out: PDE9 inhibition
Protocol: The PDE9-inhibiting activity was measured by the following method. That is, to a buffer solution containing tris(hydroxymethyl)aminomethane-hydrochloric acid (40 mM, pH 8.0), magnesium chloride (5 mM), and 2-mercaptoethanol (4 mM) were added cGMP (1 μM) and ^3H-cGMP (0.33 μCi/ml) to give a substrate buffer solution. A test substance solution and an enzyme solution which had been adjusted to an optimal concentration were added thereto to perform a reaction at 30° C. The enzyme reaction was stopped by the addition of Scintillation Proximity Assay (SPA) Beads (Perkin Elmer, USA) containing 5 mM 3-isobutyl-1-methylxanthine (IBMX). For the enzyme activity, the amount of 5′-GMP, which is a reaction degradation product bound to SPA beads, was measured with a TopCount microplate reader (Hewlett Packard, USA). The inhibitory rate was calculated by taking the radioactivity of the control containing no test substance as (A), taking the radioactivity of the blank containing no enzyme as (B), and taking the radioactivity of the test substance as (C), and using the following equation.

[1] = tested on: urethra relaxation response; experiment: Simultaneous measurement model for rat bladder contraction/urethra relaxation responses; assay type: in vivo; settings: female SD rat, increase relative to the solvent administration group, read-out: Ratio with increased urethra relaxation time during voiding (vs vehicle) (%)
Protocol: Simultaneous measurement of the bladder contraction and urethra relaxation responses using a rat was carried out with a partial modification of a method in Wibberley et al. (Wibberley, A., et al., Br. J. Pharmacol., 136: pp. 399-414 (2002)). That is, a female Sprague-Dawley (SD) rat (Charles River Laboratories Japan, Inc.) was anesthetized with urethane, and the bladder was exposed by a midline incision in the lower abdomen. A double lumen cannula (a cannula having a dual structure by PE190 and PE50) from the bladder apex was inserted into the bladder, and the bladder apex and the cannula were fixed by sutures at a point where the tip reached the proximal urethra. While infusing physiological saline into the urethra through the outer cannula, the urethral inner pressure was measured by a pressure transducer through the inner cannula with a saline solution infused into the urethra through the outer cannula. On the other hand, a single cannula (PESO) was inserted into the bladder from the bladder apex and placed therein. The inner pressure of the bladder was measured through this cannula. After a postoperative stabilization period had passed, physiological saline was infused into the bladder through the cannula of the bladder apex to cause a bladder contraction reaction, and thus cause a urethra relaxation response accompanying the bladder contraction reflex. The test substance was administered intravenously or intraduodenally.

Chain of PDE9 (O76083 whole entry): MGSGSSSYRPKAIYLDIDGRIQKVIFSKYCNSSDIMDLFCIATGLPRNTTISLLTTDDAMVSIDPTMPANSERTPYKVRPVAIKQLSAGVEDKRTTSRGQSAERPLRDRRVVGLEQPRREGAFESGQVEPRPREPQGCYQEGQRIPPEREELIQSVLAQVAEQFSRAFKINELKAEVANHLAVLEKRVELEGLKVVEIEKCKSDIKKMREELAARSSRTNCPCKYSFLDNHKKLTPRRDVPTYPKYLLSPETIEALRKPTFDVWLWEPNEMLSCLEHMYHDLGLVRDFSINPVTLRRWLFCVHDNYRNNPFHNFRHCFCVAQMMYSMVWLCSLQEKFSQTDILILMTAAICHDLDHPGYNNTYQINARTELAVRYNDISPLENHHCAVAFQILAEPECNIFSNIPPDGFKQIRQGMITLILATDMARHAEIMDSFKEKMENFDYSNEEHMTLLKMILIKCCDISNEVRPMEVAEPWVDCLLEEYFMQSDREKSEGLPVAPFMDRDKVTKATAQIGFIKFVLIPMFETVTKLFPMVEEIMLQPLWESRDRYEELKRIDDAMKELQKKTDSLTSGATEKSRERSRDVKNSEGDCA

Row | SMILES | melting point | pIC50 (PDE9) | response vs control in vivo at 1 mg/kg [1]
1 | O=C(c1ccc2c(c1)[nH]c(=O)c1cnn(C3CCOCC3)c12)N1CCc2cc(Cl)ccc21 [Example 12] | 341 to 343 °C | 8.07 | –
2 | Cc1nn(C2CCCC2)c2c1c(=O)[nH]c1cc(C(=O)N3CCc4cc(F)ccc43)ccc12 [Example 18] | 321 to 323 °C | – | –
3 | Cc1cc2[nH]c(=O)c3cnn(C4CCOCC4)c3c2cc1C(=O)NCC1(N2CCOCC2)CCCCC1.Cl [Example 23] | 281 to 283 °C | 9.40 | 168%
4 | Cc1cc2[nH]c(=O)c3cnn(C4CCC4)c3c2cc1C(=O)N1CCN(CC2CCOCC2)CC1 [Example 55] | – | 7.82 | 166%
5 | Cc1cc2[nH]c(=O)c3cnn(C4CCCC4)c3c2cc1C(=O)N1CCN(C2CCOCC2)CC1 [Example 58] | 263 to 265 °C | – | –
6 | CCOCCCN1CCN(C(=O)c2cc3c(cc2C)[nH]c(=O)c2cnn(C4CCOCC4)c23)CC1 [Example 63] | 217 to 219 °C | 8.08 | –
7 | Cc1cc2[nH]c(=O)c3cnn(C4CCOCC4)c3c2cc1C(=O)N1CCN(CCCOC(C)C)CC1 [Example 64] | 122 to 124 °C | – | –
8 | COCCCCN1CCN(C(=O)c2cc3c(cc2C)[nH]c(=O)c2cnn(C4CCCC4)c23)CC1 [Example 67] | 234 to 236 °C | – | –
9 | Cc1cc2[nH]c(=O)c3cnn(C4CCOCC4)c3c2cc1C(=O)N1CCN(CCCOC(C)(C)C)CC1 [Example 77] | 238 to 240 °C | – | –
10 | COCCCCN1CCN(C(=O)c2cc3c(cc2C)[nH]c(=O)c2cnn(C4CCC4)c23)CC1 [Example 79] | 161 to 163 °C | 7.64 | 139%
11 | COCCCCN1CCN(C(=O)c2cc3c(cc2C)[nH]c(=O)c2cnn(C4CCOCC4)c23)CC1.Cl [Example 84] | 240 to 242 °C | 8.03 | 154%
12 | COCCCCN1CCN(C(=O)c2cc3c(cc2C)[nH]c(=O)c2cnn(CC4CCC4)c23)CC1 [Example 90] | 178 to 180 °C | – | –
13 | COCCCN1CCN(C(=O)c2cc3c(cc2C)[nH]c(=O)c2cnn(CC4CCC4)c23)CC1 [Example 97] | 186 to 188 °C | – | –
14 | COCCCCN1CCN(C(=O)c2cc3c(cc2C)[nH]c(=O)c2cnn(CC4CC4)c23)CC1.Cl [Example 103] | 207 to 208 °C | 7.89 | –
15 | CCOCCCCN1CCN(C(=O)c2cc3c(cc2C)[nH]c(=O)c2cnn(C4CCOCC4)c23)C[C@@H]1C [Example 109] | – | 8.24 | 158%
16 | COCC(F)(F)CN1CCN(C(=O)c2cc3c(cc2C)[nH]c(=O)c2cnn(C4CCOCC4)c23)CC1 [Example 133] | 212 to 213 °C | 8.08 | –
17 | Cc1cc2[nH]c(=O)c3cnn([C@H]4CCOC4)c3c2cc1C(=O)N1CCC(OC2CC2)CC1 [Example 218] | 197 to 198 °C | 7.77 | –
18 | Cc1cc2[nH]c(=O)c3cnn(C4CCOCC4)c3c2cc1C(=O)N1CCN(C2CCCC2)CC1 [Example 255] | 228 to 230 °C | – | –
19 | CCOCCCCN1CCN(C(=O)c2cc3c(cc2C)[nH]c(=O)c2cnn([C@H]4CCOC4)c23)CC1 [Example 660] | – | 7.55 | –
20 | COCCC1CCN(C(=O)c2cc3c(cc2C)[nH]c(=O)c2cnn([C@H]4CCOC4)c23)CC1 [Example 668] | – | 8.01 | –

Further lines, with some results ahead:

Row | melting point | pIC50 (PDE9) | SMILES | response vs control in vivo at 1 mg/kg [1]
21 | 259 to 263 °C | – | Cc1cc2[nH]c(=O)c3cnn(C4CCOCC4)c3c2cc1C(=O)N1CCN(Cc2cccnc2)CC1 (as salt: hydrochloride) [Example 2, 7-methyl-8-{[4-(pyridin-3-ylmethyl)piperazin-1-yl]carbonyl}-1-(tetrahydro-2H-pyran-4-yl)-1,5-dihydro-4H-pyrazolo[4,3-c]quinolin-4-one dihydrochloride] | –
22 | 291 to 294 °C | 7.74 | O=C(c1ccc2c(c1)[nH]c(=O)c1cnn(C3CCCC3)c12)N1CCc2cc(Cl)ccc21 [Example 1, 7-[(5-chloro-2,3-dihydro-1H-indol-1-yl)carbonyl]-1-cyclopentyl-1,5-dihydro-4H-pyrazolo[4,3-c]quinolin-4-one] | –
23 | 298 to 301 °C | – | O=C(c1ccc2c(c1)[nH]c(=O)c1cnn(C3CCOCC3)c12)N1CCCC(c2ccccc2)C1 (centres unmarked) [Example 11] | –
24 | 183 to 186 °C | 7.07 | CN1CCN(C(=O)c2ccc3c(c2)[nH]c(=O)c2cnn(C4CCOCC4)c23)CC1c1ccccc1 (centres unmarked) [Example 13] | –
25 | 293 to 296 °C | 7.09 | O=C(c1ccc2c(c1)[nH]c(=O)c1cnn(C3CCOCC3)c12)N1CCOC(c2ccc(F)cc2)C1 (centres unmarked) [Example 14] | –
26 | 337 to 340 °C | – | COc1cc2c(cn1)N(C(=O)c1ccc3c(c1)[nH]c(=O)c1cnn(C4CCOCC4)c13)CC2 [Example 15] | –
27 | 221 to 224 °C | 8.04 | Cc1cc2[nH]c(=O)c3cnn(C4CCOCC4)c3c2cc1C(=O)N1CCC2(CCN(Cc3ccccc3)CC2)CC1 [Example 16] | –
28 | 272 to 275 °C | 8.68 | Cc1cc2[nH]c(=O)c3cnn(C4CCOCC4)c3c2cc1C(=O)N1CCN(c2ccccn2)CC1 [Example 17] | –
29 | 312 to 318 °C (dec.) | – | O=C(c1ccc2c(c1)[nH]c(=O)c1cnn(C3CCOCC3)c12)N1Cc2cccc(F)c2C1 [Example 19] | –
30 | 174 to 176 °C | – | O=C(c1ccc2c(c1)[nH]c(=O)c1cnn(C3CCOCC3)c12)N1CCOC(c2ccccc2F)C1 (centres unmarked) [Example 20] | –
31 | 253 to 256 °C | – | Cc1cc2[nH]c(=O)c3cnn(C4CCOCC4)c3c2cc1C(=O)N1CCN(C)C(c2ccccc2)C1 (centres unmarked) [Example 21] | –
32 | 250 to 253 °C | 8.66 | Cc1cc2[nH]c(=O)c3cnn(C4CCOCC4)c3c2cc1C(=O)N1CCC(Oc2ccccn2)CC1 [Example 22] | 142%
33 | 253 to 255 °C | 8.04 | COCC1CCN(C(=O)c2cc3c(cc2C)[nH]c(=O)c2cnn(C4CCOCC4)c23)CC1.Cl [Example 28] | –
34 | – | 8.05 | CCOC1CCN(C(=O)c2cc3c(cc2C)[nH]c(=O)c2cnn(C4CCOCC4)c23)CC1 [Example 40] | 138%
35 | 206 to 208 °C | 8.24 | Cc1cc2[nH]c(=O)c3cnn(C4CCOCC4)c3c2cc1C(=O)N1CCC(OCC2CC2)CC1 [Example 41] | 159%
36 | 218 to 220 °C | – | COCCN1CCN(C(=O)c2cc3c(cc2C)[nH]c(=O)c2cnn(C4CCOCC4)c23)C[C@@H]1c1ccccc1 [Example 47] | –
37 | 266 to 268 °C | – | Cc1cc2[nH]c(=O)c3cnn(C4CCOCC4)c3c2cc1C(=O)N1CCOC(c2cccnc2)C1 (centres unmarked) [Example 48] | –
38 | 255 to 257 °C | 8.41 | Cc1cc2[nH]c(=O)c3cnn(C4CCOCC4)c3c2cc1C(=O)N1CCN(C)C(c2cccnc2)C1 (centres unmarked) [Example 49] | –
39 | 216 to 218 °C | 8.41 | CCCOC1CCN(C(=O)c2cc3c(cc2C)[nH]c(=O)c2cnn(C4CCOCC4)c23)CC1 [Example 53] | 145%
40 | – | 8.36 | CCOCC1CCN(C(=O)c2cc3c(cc2C)[nH]c(=O)c2cnn(C4CCOCC4)c23)CC1 [Example 56] | 158%
41 | 254 to 256 °C | – | Cc1cc2[nH]c(=O)c3cnn(C4CCOCC4)c3c2cc1C(=O)N1CCN(CCCc2cccnc2)CC1 [Example 57] | –
42 | 241 to 242 °C | 8.37 | COCCC1CCN(C(=O)c2cc3c(cc2C)[nH]c(=O)c2cnn(C4CCOCC4)c23)CC1 [Example 66] | –
43 | 226 to 228 °C | 8.48 | CCOCC1CN(C(=O)c2cc3c(cc2C)[nH]c(=O)c2cnn(C4CCOCC4)c23)C1 [Example 86] | –
44 | 272 to 274 °C | – | CCN1CCN(C(=O)c2cc3c(cc2C)[nH]c(=O)c2cnn(C4CCOCC4)c23)CC1c1cccnc1 (centres unmarked) [Example 91] | –
45 | 210 to 211 °C | 8.08 | Cc1cc2[nH]c(=O)c3cnn(C4CCOCC4)c3c2cc1C(=O)N1CCC(OCC(C)(F)F)CC1 [Example 176] | –
46 | 205 to 206 °C | 8.01 | Cc1cc2[nH]c(=O)c3cnn(C4CCOCC4)c3c2cc1C(=O)N1CCC(OC[C@@H](C)F)CC1 [Example 177] | –
47 | 210 to 211 °C | 8.36 | Cc1cc2[nH]c(=O)c3cnn(C4CCOCC4)c3c2cc1C(=O)N1CCC(COC2CC2)CC1 [Example 217] | –
